The record followed here is patent US7662842B2, “Thiazolidinone amides, thiazolidine carboxylic acid amides, and serine amides, including polyamine conjugates thereof, as selective anti-cancer agents” (Ohio State Univesity Research Foundation, priority 2003, dated 2010).

In one test the test system is SKMEL-188 melanoma cells. Briefly: Sulforhodamine B assay in melanoma cells, SKMEL-188. In kind it is cell-based. To be noted: SK-MEL-188, 48 h, SRB assay, 48 h incubation; melanoma cell line. Background: In SRB staining, fixed cells bind dye roughly in proportion to their protein.
Another test deals with WM-164 cells. The test can be described thus: Sulforhodamine B assay in melanoma cells, WM-164. In kind it is cell-based. Particulars: Homo sapiens, WM164, read-out: IC50 WM-164; SRB assay, 48 h incubation; melanoma cell line.
In a further test the test system is human dermal fibroblasts. Briefly: Sulforhodamine B assay, fibroblast control cells. The test is classed as cell-based. To be noted: Homo sapiens, Fibroblast, 48 h, SRB assay, 48 h incubation.
Another test relates to LNCaP cells. The test can be described thus: DNA fragmentation by agarose gel electrophoresis. In kind it is cell-based, human. To be noted: treatment for 24 to […], 3-50 μM, FIGS. 4A-B. Here is the method:
In FIG. 4B, the dose and exposure time are indicated for compound 5 as follows: lane 1, 100 bp DNA marker; lane 2, 5 μM for 24 h; lane 3, 5 μM for 48 h; lane 4, 5 μM for 72 h; lane 5, 5 μM for 96 h; lane 6, 3 μM for 96 h; lane 7, 8 μM for 48 h; and lane 8, 8 μM for 72 h.

The test system of a further test is effector capsase-3. Briefly: Activation of effector caspase-3. The test is classed as cell-based.

A word on the IC50: it is the midpoint of a concentration-inhibition curve. `CCCCCCCCCCCCCCNC(=O)[C@@H]1CSC(c2ccccc2)N1.Cl` (mixture of isomers) [Compound 4, (2RS, 4R)-2-Phenylthiazolidine-4-carboxylic acid tetradecylamide Hydrochloride]: the IC50 was 570 nM in the test with SKMEL-188 melanoma cells, 460 nM in the test on WM-164 cells and 6100 nM with human dermal fibroblasts. In the test on LNCaP cells, the “DNA fragmentation (apoptosis) in LNCaP cells” value is on record as “induce cell apoptosis”. Further, in the test on effector capsase-3, the “Activation of effector caspase-3” value is listed as “no increase in activity”.
